Test results reported in US20210253705A1, “METHODS AND AGENTS FOR TREATING ORGAN INJURY AND TRANSPLANT REJECTION” (The Regents of the University of California, priority 2020, published 2021).

Test system: BALB/c airway allografts in C57BL/6 recipients
Assay: Heterotopic subcutaneous tracheal/airway transplantation model of allograft rejection
Format: in vivo, mice
Conditions: recipients treated with CCR4 inhibitor, day 14
Procedure: Each mouse was subcutaneously transplanted with two tracheas. Small molecule CCR4 inhibitor or antagonist C 021 dihydrochloride (Cat #3581, Tocris Bio-Techne, Minneapolis, Minn., USA) was resuspended in sterile DMSO to 100 mg/ml and diluted further in 1×PBS to be administered as intraperitoneal (i.p.) injections at 50 mg/kg daily starting at day −1 prior to tracheal transplantation until day 14 when allografts were harvested for rejection analysis.
Histopathological Evaluation of Airway and Lung Transplants. Airway and lung graft tissues were fixed overnight in 4% paraformaldehyde, processed, paraffin-embedded, sectioned and stained with hematoxylin and eosin (H&E) or Elastin Trichrome. Three independent blinded reviewers calculated the degree of airway injury using a histological scoring system. All qualitative histological changes were evaluated and the total murine rejection score was calculated based on four pathological criteria: (a) airway lining epithelial loss, (b) deposition of extracellular matrix (ECM), (c) leukocyte infiltration, and (d) luminal fibro-obliteration due to granulation tissue formation and/or fibrosis. Each process was scored on a scale of 0-4 (0=normal, 1=mild, 2=moderate, 3=severe and 4=very severe) and added together for a total rejection score. […] Images were taken by Zeiss Axioskop 2 plus microscope and analyzed with AxioVision 4.2 imaging software. […]

COc1cc2nc(N3CCC(N4CCCCC4)CC3)nc(NC3CCCCCC3)c2cc1OC.Cl.Cl [C 021 dihydrochloride, 2-[1,4′-bipiperidin]-1′-yl-N-cycloheptyl-6,7-dimethoxy-4-quinazolinamine dihydrochloride]
H&E histology of airway allografts: virtually normal epithelium and minimal matrix deposition without fibro-obliteration
